{
  "source": "paper PMC7612365",
  "about": "(Cancer Discovery, 2021)",
  "key": {"[1]": {"settings": "substrates of efflux transporters ABCB1 (P-gp) and/or ABCG2 (BCRP) ref 27, 28; cited from earlier work"}, "ABCB1 (P-gp) [2]": {"biological_target": "T1, ABCB1 (P-gp) (Homo sapiens, UniProt P08183)", "T1 sequence (P08183 whole entry)": "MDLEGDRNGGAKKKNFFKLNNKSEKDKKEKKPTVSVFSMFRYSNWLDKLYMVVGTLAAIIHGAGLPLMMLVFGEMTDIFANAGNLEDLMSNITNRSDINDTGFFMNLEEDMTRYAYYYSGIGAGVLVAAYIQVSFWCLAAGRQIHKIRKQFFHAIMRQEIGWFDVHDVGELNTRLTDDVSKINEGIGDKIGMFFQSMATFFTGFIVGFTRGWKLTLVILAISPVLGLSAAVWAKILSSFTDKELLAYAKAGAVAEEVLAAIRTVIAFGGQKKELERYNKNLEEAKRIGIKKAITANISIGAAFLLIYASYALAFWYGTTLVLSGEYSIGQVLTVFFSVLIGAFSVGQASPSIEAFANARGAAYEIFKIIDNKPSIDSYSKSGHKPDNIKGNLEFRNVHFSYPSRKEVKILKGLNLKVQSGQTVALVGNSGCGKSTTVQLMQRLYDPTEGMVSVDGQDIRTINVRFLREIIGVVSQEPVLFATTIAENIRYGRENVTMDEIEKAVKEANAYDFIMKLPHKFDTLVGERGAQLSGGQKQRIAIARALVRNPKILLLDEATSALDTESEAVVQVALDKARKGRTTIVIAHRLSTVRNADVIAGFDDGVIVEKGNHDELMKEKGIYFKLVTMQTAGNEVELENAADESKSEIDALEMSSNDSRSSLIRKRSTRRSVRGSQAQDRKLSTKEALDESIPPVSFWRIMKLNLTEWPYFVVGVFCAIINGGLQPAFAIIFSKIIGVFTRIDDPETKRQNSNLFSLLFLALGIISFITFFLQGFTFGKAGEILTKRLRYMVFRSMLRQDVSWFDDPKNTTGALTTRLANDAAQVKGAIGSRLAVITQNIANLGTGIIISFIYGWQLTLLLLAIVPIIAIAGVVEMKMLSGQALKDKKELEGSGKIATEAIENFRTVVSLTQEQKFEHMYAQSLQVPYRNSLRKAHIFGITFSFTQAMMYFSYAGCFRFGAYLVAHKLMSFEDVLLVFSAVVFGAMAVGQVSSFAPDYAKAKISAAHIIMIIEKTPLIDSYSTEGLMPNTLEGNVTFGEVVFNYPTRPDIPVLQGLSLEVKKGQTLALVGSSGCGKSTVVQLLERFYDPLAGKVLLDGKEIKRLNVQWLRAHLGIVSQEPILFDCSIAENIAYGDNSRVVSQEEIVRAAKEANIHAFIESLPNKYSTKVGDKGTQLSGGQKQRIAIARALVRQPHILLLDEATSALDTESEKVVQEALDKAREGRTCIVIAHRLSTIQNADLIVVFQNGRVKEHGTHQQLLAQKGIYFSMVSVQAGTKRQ", "experiment": "Caco-2 permeability assay with P-gp substrate indinavir", "experimental": "(§1) Apparent permeability (Papp) was determined in the Caco-2 human colon carcinoma cell line. Cells were maintained (DMEM with 10% FBS, penicillin, and streptomycin) in a humidified atmosphere with 5%CO2/95% air for 10 days. Cells were plated out onto a cell culture assembly plate (Millipore), and monolayer confluency was checked using a transepithelial electrical resistance (TEER) electrode prior to the assay. Media were washed off and replaced in the appropriate apical and basal wells with Hank's Balanced Salt Solution buffer (pH 7.4). […] LY335979 (P-gp inhibitor) and Ko134 (BCRP inhibitor) were used as positive controls. The Caco-2 plate was incubated for 2 hours at 37°C in a humidified atmosphere with 5% CO2, and Lucifer yellow was used to confirm membrane integrity after the assay. Samples from the apical and basolateral chambers were analyzed using reverse chromatography tandem mass spectrometry on a Waters TQ-S."}, "ABCG2 (BCRP)": {"biological_target": "T2, ABCG2 (BCRP) (Homo sapiens, UniProt Q9UNQ0)", "T2 construct": "Apparent permeability (Papp) was determined in the Caco-2 human colon carcinoma cell line; endogenous in cells; host or cells: Caco-2", "T2 sequence (Q9UNQ0 1-655)": "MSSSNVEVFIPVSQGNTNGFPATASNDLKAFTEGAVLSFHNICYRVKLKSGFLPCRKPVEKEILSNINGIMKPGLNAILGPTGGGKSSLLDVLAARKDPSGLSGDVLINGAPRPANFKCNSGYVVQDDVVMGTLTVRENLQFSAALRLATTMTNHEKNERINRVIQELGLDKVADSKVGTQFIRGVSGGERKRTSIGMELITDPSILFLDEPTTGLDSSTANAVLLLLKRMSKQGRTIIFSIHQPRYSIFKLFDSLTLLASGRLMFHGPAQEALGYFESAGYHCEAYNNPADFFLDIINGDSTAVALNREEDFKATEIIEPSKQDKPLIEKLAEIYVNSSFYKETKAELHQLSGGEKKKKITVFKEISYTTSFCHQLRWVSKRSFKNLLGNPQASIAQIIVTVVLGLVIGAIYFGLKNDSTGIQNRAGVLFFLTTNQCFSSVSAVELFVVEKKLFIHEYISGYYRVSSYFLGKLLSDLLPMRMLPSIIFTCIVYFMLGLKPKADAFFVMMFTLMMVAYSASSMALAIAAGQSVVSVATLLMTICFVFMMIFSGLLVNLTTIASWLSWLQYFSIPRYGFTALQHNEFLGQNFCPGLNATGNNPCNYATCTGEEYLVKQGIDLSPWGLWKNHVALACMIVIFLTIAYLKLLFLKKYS", "experiment": "Caco-2 permeability assay with BCRP substrate E3S", "type": "in vitro ADME", "settings": "for interaction with BCRP / B–A apparent permeability of control substrate: Caco-2", "experimental": "as §1"}, "[3]": {"settings": "cited from earlier work"}, "[4]": {"settings": "up to 70 mg weekly ref 54; cited from earlier work"}, "[5]": {"experiment": "Vandetanib brain concentration in non-tumor-bearing mice (LC-MS/MS)", "type": "in vivo, mouse", "settings": "with everolimus compared with vandetanib alone, P = 0.0854", "experimental": "Plasma and brain tissue samples were taken in triplicate at 1 hour after the last dose. Analysis was carried out by LC-MS/MS using a Xevo TQS coupled with an Acquity UPLC H-class system (Waters). Chromatography was carried out using a Phenomenex C18 X-B column (2.6 μm, 50 × 2.1 mm). Data acquisition was performed using Targetlynx, version 4.1, and modeling was carried out using Phoenix WinNonlin version 6.3."}, "DIPG": {"system": "DIPG", "settings": "cited from earlier work"}, "ABCB1 (P-gp) [6]": {"biological_target": "T1, ABCB1 (P-gp)", "settings": "Caco-2", "experimental": "as §1"}, "[7]": {"settings": "with everolimus to inhibit P-gp and BCRP ref 41; cited from earlier work"}, "[8]": {"system": "ACVR1-mutant and wild-type patient-derived DIPG cells", "experiment": "Single-agent cell viability in patient-derived DIPG cells", "settings": "in vitro; P = 0.0272", "experimental": "Cells were plated at a density of 2,000 to 4,000 cells/well on laminin-coated 96-well plates in a minimum of triplicates. After 3 days of incubation, compounds were added to each well and incubated at 37°C in 5% CO2, 95% humidity for 8 days (192 hours). […] Cell viability was assessed by the CellTiter-Glo luminescent cell viability assay (Promega)."}, "[9]": {"experiment": "Vandetanib concentration in brain and tumor of nude mice", "type": "in vivo", "settings": "female, athymic nude, mouse, intraperitoneal, combined with everolimus", "experimental": "(§2) Both patient-derived H3F3A^K27M, ACVR1^R206H HSJD-DIPG-007 cells and those derived from a Nestin-Tv-a; Trp53^fl/fl; Hist1h3b^K27M, Acvr1^R206H ([14]) GEMM were used for orthotopic implantation. A single-cell suspension of each culture was made the day before implantation and cultured overnight. On the implantation day, small tumorspheres in exponential growth were harvested by mild centrifugation. Three-week-old female athymic mice were anesthetized with 100 mg/kg ketamine and 10 mg/kg xylazine and immobilized in a stereotaxic apparatus (Stoelting) at coordinates x+0.5 and y−5.4 from the bregma suture. HSJD-DIPG-007 tumorspheres (5 × 10^5 cells), suspended in 5 μL Matrigel (BD Biosciences), were injected at a 3.1-mm depth (targeting the fourth ventricle) with a dull 22-gauge needle attached to a 50-μL syringe (Hamilton), using a stereotaxic arm. The animals (n = 72) were divided in four groups, with treatment starting 4 weeks (day 25) after tumor inoculation. […] Mice were monitored by daily weighing and sacrificed by decapitation upon deterioration of condition or 20% weight loss from the maximum weight achieved, with tissue taken for further analysis. Mouse brains collected at the end of the efficacy study were processed for IHC. […]"}, "[10]": {"experiment": "Vandetanib concentration in brain and tumor of NSG mice", "type": "in vivo", "settings": "mouse, intraperitoneal, combined with everolimus", "experimental": "as §2"}},
  "note": "Read-outs that look alike come from different tables or passages of the source.",
  "data": [
    {"smiles": "C[C@@H](Oc1cc(-c2cnn(C3CCNCC3)c2)cnc1N)c1c(Cl)ccc(F)c1Cl", "note": "[crizotinib]", "values": [
      {"measurement": "brain exposure", "setting": "[1]", "result": "insufficient brain exposures"}
    ]},
    {"smiles": "CO[C@H]1C[C@@H]2CC[C@@H](C)[C@@](O)(O2)C(=O)C(=O)N2CCCC[C@H]2C(=O)O[C@H]([C@H](C)C[C@@H]2CC[C@@H](OCCO)[C@H](OC)C2)CC(=O)[C@H](C)/C=C(\\C)[C@@H](O)[C@@H](OC)C(=O)[C@H](C)C[C@H](C)/C=C/C=C/C=C/1C", "note": "[everolimus]", "values": [
      {"measurement": "interaction with P-gp / B–A apparent permeability of control substrate", "setting": "ABCB1 (P-gp) [2]", "result": "significantly decreased"},
      {"measurement": "interaction with BCRP / B–A apparent permeability of control substrate", "setting": "ABCG2 (BCRP)", "result": "significantly decreased"},
      {"measurement": "MTD and recommended phase II dose of everolimus", "setting": "[3]; in combination with vandetanib ref 42", "result": 10, "unit": "mg once daily"},
      {"measurement": "mean peak levels compared with standard regimens", "setting": "[4]", "result": "tenfold higher"},
      {"measurement": "tolerability of higher doses", "setting": "[4]", "result": "well tolerated"}
    ]},
    {"smiles": "COc1cc2c(Nc3ccc(Br)cc3F)ncnc2cc1OCC1CCN(C)CC1", "note": "[vandetanib]", "values": [
      {"measurement": "increase of median brain concentration of vandetanib", "setting": "[5]", "result": 56, "unit": "%"},
      {"measurement": "DLT (diarrhea grade 3)", "setting": "DIPG; in vivo", "result": "one"},
      {"measurement": "RP2D", "setting": "DIPG; in vivo", "result": 145, "unit": "mg/m^2/d"},
      {"measurement": "patients with grade 4 hypertension and posterior reversible encephalopathy syndrome", "setting": "DIPG; in vivo", "result": "two"},
      {"measurement": "2-year OS", "setting": "DIPG; single agent ref 32", "result": 21.4, "unit": "%"},
      {"measurement": "MTD", "setting": "DIPG; single agent ref 32", "result": "not reached"},
      {"measurement": "objective responses", "setting": "DIPG; single agent ref 32", "result": "no objective responses"},
      {"measurement": "interaction with P-gp / B–A apparent permeability of control substrate", "setting": "ABCB1 (P-gp) [6]", "result": "weak interactions"},
      {"measurement": "vandetanib brain concentrations in mice", "setting": "[7]", "result": "significantly increased"},
      {"measurement": "interaction with BCRP / B–A apparent permeability of control substrate", "setting": "ABCG2 (BCRP)", "result": "weak interactions"},
      {"measurement": "effect of adding vandetanib to everolimus on BCRP substrate permeability", "setting": "ABCG2 (BCRP); Caco-2, combination", "result": "no effect"},
      {"measurement": "MTD and recommended phase II dose of vandetanib", "setting": "[3]; in combination with everolimus ref 42", "result": 300, "unit": "mg once daily"},
      {"measurement": "brain exposure", "setting": "[1]", "result": "insufficient brain exposures"},
      {"measurement": "enhanced difference in cell viability, ACVR1-mutant compared with wild-type DIPG cells", "setting": "[8]", "result": "approximately twofold"},
      {"measurement": "concentration at 2 h", "setting": "[9]; normal brain", "result": "> 15", "unit": "µM"},
      {"measurement": "concentration at 2 h", "setting": "[9]; tumour (PDX)", "result": "> 15", "unit": "µM"},
      {"measurement": "concentration at 2 h", "setting": "[10]; normal brain", "result": 10, "unit": "µM"},
      {"measurement": "concentration at 2 h", "setting": "[10]; tumour (GEMM allograft)", "result": "< 5", "unit": "µM"}
    ]}
  ]
}
